Assay results: US12673946B2, “Pyrimidin-4(3H)-one derivatives as TRPV4 antagonists” (RaQualia Pharma Inc., priority 2020, dated 2026)

Biological target: T1, human TRPV4 (Homo sapiens, UniProt Q9HBA0)
T1 construct: host or cells: tetracycline-inducible Flp-In T-REx 293 cells
Experiment: Hypotonicity-induced Ca2+ influx (Fluo-4, FDSS)
Type: cell-based
Method: Hypotonicity-Induced Ca^2+ Influx
TRPV4 channel activation/opening results in an influx of Ca^2+ (Liedtke, W. et al., 2000 (NPL 1)). The resulting changes in intracellular calcium are monitored using a Ca^2+ sensitive fluorescent dye Fluo-4 (Invitrogen). Dye loaded cells are treated with the test compounds for 5 minutes prior to the addition of a hypotonic solution and the inhibition of the hypotonicity-induced activation is recorded.
Forty microL of tetracycline-inducible Flp-In T-REx 293 cells (Invitrogen) stably expressing human TRPV4 are seeded onto the poly-D-lysine coated 384-well plate (Corning) at a density of 10,000 cells per well. The following day, TRPV4 expression is induced by adding 0.5 microg/mL tetracycline for 20-24 hours. On the day of the experiment, the media is removed and replaced with 40 microL of dye loading buffer [1 microM Fluo-4 AM (Invitrogen), 0.01% Pluronic F-127, and 20 mM HEPES in Hanks' balanced salt solutions (HBSS; Invitrogen)] and then the cells are incubated for 60 minutes at 25° C. Dye is then removed and replaced with 20 microL of assay buffer (20 mM HEPES in HBSS). Five minutes prior to the fluorescence measurement, 10 microL of test compound is added to the cells. Using the FDSS instrument (Hamamatsu Photonics), 30 microL of hypotonic solution (90 mM D-mannitol and 1.26 mM CaCl2 in ultrapure water) is added 30 seconds after the start of measurement. The calcium flux signal is recorded for a total of 4.5 minutes.

[1] = Flp-In T-REx 293 cells expressing human TRPV4, examples listed under heading 'Human IC50<50 nM'
[2] = Flp-In T-REx 293 cells stably expressing human TRPV4, compounds listed by potency bin (<10 nM Tables 96-1/96-2, <3 nM Table 97)

T1 sequence (Q9HBA0 whole entry): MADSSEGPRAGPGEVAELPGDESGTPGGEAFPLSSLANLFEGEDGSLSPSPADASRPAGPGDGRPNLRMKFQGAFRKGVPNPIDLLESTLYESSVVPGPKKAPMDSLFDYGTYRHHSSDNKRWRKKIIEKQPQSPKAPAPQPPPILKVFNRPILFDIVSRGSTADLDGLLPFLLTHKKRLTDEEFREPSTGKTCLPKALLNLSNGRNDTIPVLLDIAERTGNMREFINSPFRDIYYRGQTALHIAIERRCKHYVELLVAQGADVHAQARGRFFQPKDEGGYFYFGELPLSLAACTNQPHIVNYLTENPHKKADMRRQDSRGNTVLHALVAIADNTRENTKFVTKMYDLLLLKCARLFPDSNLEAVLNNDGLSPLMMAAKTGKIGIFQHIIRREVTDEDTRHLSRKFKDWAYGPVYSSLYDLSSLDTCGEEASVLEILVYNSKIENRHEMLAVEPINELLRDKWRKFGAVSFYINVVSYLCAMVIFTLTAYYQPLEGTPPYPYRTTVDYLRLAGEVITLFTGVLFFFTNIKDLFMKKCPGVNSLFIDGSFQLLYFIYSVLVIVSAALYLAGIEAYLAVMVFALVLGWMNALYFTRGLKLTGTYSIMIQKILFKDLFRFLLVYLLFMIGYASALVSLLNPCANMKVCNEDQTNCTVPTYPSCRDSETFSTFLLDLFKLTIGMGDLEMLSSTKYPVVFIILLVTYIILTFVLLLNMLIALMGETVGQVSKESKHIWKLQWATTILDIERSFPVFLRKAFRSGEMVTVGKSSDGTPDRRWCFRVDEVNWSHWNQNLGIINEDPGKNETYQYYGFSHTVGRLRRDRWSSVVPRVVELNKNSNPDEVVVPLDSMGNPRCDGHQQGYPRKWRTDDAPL

IC50 [1] [nM] | IC50 [2] [nM] | Structure (SMILES)
< 50 | < 10 | O=C(C(O)c1cccc(-c2cccc(C(F)(F)F)c2)c1)N1CCCc2c(nc(C3(c4ccccc4)CC3)[nH]c2=O)C1 (stereo not shown) [17-74]
< 50 | – | O=C([C@H](O)c1cccc(-c2cncc(C(F)(F)F)c2)c1)N1CCCc2nc(C3(c4ccccc4)CC3)[nH]c(=O)c2C1 [49-21]
< 50 | < 3 | O=C([C@H](O)c1cccc(-c2ccc(Cl)cc2)c1)N1CCCc2nc(C3(c4cccc(Cl)c4)CC3)[nH]c(=O)c2C1 [50-5]
< 50 | < 3 | O=C(N1CCCc2nc(C3(c4cncc(-c5ccccc5)c4)CC3)[nH]c(=O)c2C1)C(F)(F)c1cccc(C(F)(F)F)c1 [22-4]
< 50 | < 3 | Cc1ccc(-c2cccc([C@@H](O)C(=O)N3CCCc4nc(C5(c6ccccc6)CC5)[nH]c(=O)c4C3)c2)cc1Cl [49-31]
< 50 | – | O=C([C@H](O)c1cccc(Cl)c1)N1CCc2nc(C3(c4ccccc4)CC3)[nH]c(=O)c2C1 [2-33, (R)-6-(2-(3-chlorophenyl)-2-hydroxyacetyl)-2-(1-phenylcyclopropyl)-5,6,7,8-tetrahydropyrido[4,3-d]pyrimidin-4(3H)-one]
< 50 | – | CC(C)c1cccc(C2(c3nc4c(c(=O)[nH]3)CN(C(=O)C(O)c3cccc(SC(F)(F)F)c3)CCC4)CC2)c1 (stereo not shown) [17-44]
< 50 | < 3 | O=C([C@H](O)c1cccc(-c2cccc(Cl)c2)c1)N1CCCc2nc(C3(c4ccccc4)CC3)[nH]c(=O)c2C1 [49-15]
< 50 | < 10 | CC(C)c1cccc(C2(c3nc4c(c(=O)[nH]3)CN(C(=O)[C@H](O)c3cccc(-c5cccc(F)c5)c3)CCC4)CC2)c1 [51-8]
< 50 | < 10 | O=C([C@H](O)c1cccc(Cl)c1)N1CCCc2nc(C3(c4cccc(-c5ccc(Cl)cc5)c4)CC3)[nH]c(=O)c2C1 [40-7]
< 50 | < 10 | O=C([C@H](O)c1cccc(Br)c1)N1CCCc2nc(C3(c4cccc(-c5csc6ccccc56)c4)CC3)[nH]c(=O)c2C1 [17-124]
< 50 | < 10 | O=C([C@H](O)c1cccc(-c2coc3ccccc23)c1)N1CCCc2nc(C3(c4cccc(C5CCCCC5)c4)CC3)[nH]c(=O)c2C1 [52-7]
< 50 | < 10 | O=C([C@H](O)c1cccc(-c2cc3ccccc3s2)c1)N1CCCc2nc(C3(c4cccc(Cl)c4)CC3)[nH]c(=O)c2C1 [50-2]
< 50 | – | Cc1cccc(C(O)C(=O)N2CCCc3nc(C4(c5ccccc5)CC4)[nH]c(=O)c3C2)c1F (stereo not shown) [17-56]
< 50 | < 10 | O=C(Cc1cccc(S(F)(F)(F)(F)F)c1)N1CCCc2nc(C3(c4ccccc4)CC3)[nH]c(=O)c2C1 [17-31]
< 50 | < 10 | O=C([C@H](O)c1cccc(C(F)(F)F)c1)N1CCCc2nc(C3(c4cccc(-c5cc6ccccc6s5)c4)CC3)[nH]c(=O)c2C1 [42-29]
< 50 | < 3 | CN(Cc1ccc(-c2cccc(C3(c4nc5c(c(=O)[nH]4)CN(C(=O)[C@H](O)c4cccc(C(F)(F)F)c4)CCC5)CC3)c2)cc1)C(=O)NC1CCCCC1 [42-93]
< 50 | < 10 | O=C(C(O)c1cccc(-c2cc(F)cc(Cl)c2)c1)N1CCCc2nc(C3(c4ccccc4)CC3)[nH]c(=O)c2C1 (stereo not shown) [49-4]
< 50 | < 10 | CC(C)c1cncc(C2(c3nc4c(c(=O)[nH]3)CN(C(=O)C(F)(F)c3cccc(C(F)(F)F)c3)CC4)CC2)c1 [22-9]
< 50 | < 3 | O=C([C@H](O)c1cccc(-c2ccc(Cl)c(Cl)c2)c1)N1CCCc2nc(C3(c4ccccc4)CC3)[nH]c(=O)c2C1 [49-40]
< 50 | < 3 | CC(C)(C)c1cccc(-c2cccc(C(O)C(=O)N3CCCc4nc(C5(c6cncc(-c7ccccc7)c6)CC5)[nH]c(=O)c4C3)c2)c1 (stereo not shown) [56-3]

IC50 [1] [nM] | IC50 [2] [nM] | Structure (SMILES)
< 50 | < 3 | COCCOc1cccc(-c2cccc(C3(c4nc5c(c(=O)[nH]4)CN(C(=O)[C@H](O)c4cccc(C(F)(F)F)c4)CCC5)CC3)c2)c1 [42-4]
< 50 | < 10 | Cc1cc(C)cc(-c2cccc([C@@H](O)C(=O)N3CCCc4nc(C5(c6ccccc6)CC5)[nH]c(=O)c4C3)c2)c1 [49-49]
< 50 | < 3 | O=C([C@H](O)c1cccc(-c2cc3ccccc3s2)c1)N1CCc2nc(C3(c4ccccc4)CC3)[nH]c(=O)c2C1 [44-95]
< 50 | – | O=C([C@H](O)c1cccc(Cl)c1)N1CCc2nc(C3(c4cccc(-c5cccnc5)c4)CC3)[nH]c(=O)c2C1 [34-1]
< 50 | < 10 | O=C([C@H](O)c1cccc(C(F)(F)F)c1)N1CCCc2nc(C3(c4cccc(-c5ccc(N6CCC(c7ccccc7)CC6)nc5)c4)CC3)[nH]c(=O)c2C1 [42-87]
< 50 | < 10 | O=C([C@H](O)c1cccc(-c2cccc(C(F)(F)F)c2)c1)N1CCCc2nc(C3(c4cc(-c5ccccc5)cs4)CC3)[nH]c(=O)c2C1 [54-14]
< 50 | < 10 | O=C([C@H](O)c1cccc(C(F)(F)F)c1)N1CCCc2nc(C3(c4cccc(-c5cccc(F)c5)c4)CC3)[nH]c(=O)c2C1 [42-58]
< 50 | < 10 | O=C([C@H](O)c1cccc(C(F)(F)F)c1)N1CCc2nc(C3(c4cccc(Oc5ccccc5)c4)CC3)[nH]c(=O)c2C1 [14-2]
< 50 | < 10 | CC(C)c1cncc(C2(c3nc4c(c(=O)[nH]3)CN(C(=O)C(O)c3cccc(-c5cccc(C(F)(F)F)c5)c3)CCC4)CC2)c1 (stereo not shown) [55-3]
< 50 | < 10 | O=C([C@H](O)c1cccc(C(F)(F)F)c1)N1CCCc2nc(C3(c4cccc(-c5ccc6sccc6c5)c4)CC3)[nH]c(=O)c2C1 [17-96]
< 50 | < 3 | CC(C)c1csc(C2(c3nc4c(c(=O)[nH]3)CN(C(=O)[C@H](O)c3cccc(-c5ccnc(C(F)(F)F)c5)c3)CCC4)CC2)c1 [54-6]
< 50 | < 3 | O=C([C@H](O)c1cccc(Cl)c1)N1CCCc2nc(C3(c4cccc(Oc5ccccc5)c4)CC3)[nH]c(=O)c2C1 [17-73]
< 50 | – | O=C(C(O)c1ccnc(N2CCCCCC2)c1)N1CCc2nc(C3(c4ccccc4)CC3)[nH]c(=O)c2C1 (stereo not shown) [11-3]
< 50 | < 3 | O=C([C@H](O)c1cccc(C(F)(F)F)c1)N1CCc2nc(C3(c4cncc(C5CCCC5)c4)CC3)[nH]c(=O)c2C1 [28-1]
< 50 | – | O=C([C@H](O)c1cccc(C(F)(F)F)c1)N1CCCc2nc(C3(c4cccc(-c5cncnc5)c4)CC3)[nH]c(=O)c2C1 [42-33]
< 50 | – | O=C([C@H](O)c1cccc(C(F)(F)F)c1)N1CCCc2nc(C3(c4cc(-c5cccnc5)cs4)CC3)[nH]c(=O)c2C1 [41-2]
< 50 | – | CC(C)c1cccc(C(O)C(=O)N2CCc3nc(C4(c5cccc(Cl)c5)CC4)[nH]c(=O)c3C2)c1 (stereo not shown) [14-16]
< 50 | < 10 | O=C([C@H](O)c1cccc(-c2cc(Cl)cc(OC(F)(F)F)c2)c1)N1CCCc2nc(C3(c4cccc(Cl)c4)CC3)[nH]c(=O)c2C1 [50-16]
< 50 | < 10 | CC(C)c1csc(C2(c3nc4c(c(=O)[nH]3)CN(C(=O)C(O)c3cccc(C(C)(C)C)c3)CCC4)CC2)c1 (stereo not shown) [18-15]
< 50 | < 10 | CC(C)c1csc(C2(c3nc4c(c(=O)[nH]3)CN(C(=O)C(F)(F)c3cccc(C(F)(F)F)c3)CC4)CC2)c1 [21-5]
